{
  "source": "patent US20150025118A1",
  "about": "“ACTIVE COMPOUND COMPOSITIONS FOR VECTOR CONTROL OF INSECTICIDE-RESISTANT PESTS” (priority 2012, published 2015)",
  "key": {"[1]": {"test_system": "Aedes aegypti", "assay": "Aedes test: contact on treated glazed tile, knock-down", "format": "in vivo", "method": "To produce a suitable preparation of active compound combination the active compounds bendiocarb and clothianidin were dissolved in acetone (for the control group only one active compound was dissolved in acetone). The active compound combination preparation (and the active compound preparations) were pipetted onto a glazed tile and, after drying, adult mosquitoes of the species Aedes aegypti are placed onto the treated tile. The exposition time is 30 minutes.\n(§1) 0.25 hours, 0.5 hours, 1 hour, 2 hour, 3 hour, 4 hour and 24 hours after contact to the treated surface, the knock-down proportion of the test animals in % is determined. Here, 100% means that all mosquitoes have been killed; 0% means that none of the mosquitoes has been killed."}, "[2]": {"test_system": "Anopheles funestus metabolic-resistant strain FUMOZ-R", "assay": "Metabolic-resistant Anopheles test: treated glazed tile, knock-down", "format": "in vivo", "method": "(§2) The exposition time is 30 minutes.\nas §1"}, "[3]": {"test_system": "Anopheles gambiae (target-site-resistant and metabolic-resistant strain: RSPH)", "assay": "Target-site-resistant and metabolic-resistant Anopheles test: treated glazed tile, knock-down", "format": "in vivo", "method": "as §2, §1"}, "[4]": {"test_system": "mosquitoes", "conditions": "alone, on concrete (alkaline); stated as known; cited from earlier work"}, "[5]": {"conditions": "Bendiocarb 0.032 mg/m^2 alone, 0.25 h after contact"}, "[6]": {"conditions": "Bendiocarb 0.032 mg/m^2 alone, 0.5 h after contact"}, "[7]": {"conditions": "Bendiocarb 0.032 mg/m^2 alone, 1 h after contact"}, "[8]": {"conditions": "Bendiocarb 0.032 mg/m^2 alone, 2 h after contact"}, "[9]": {"conditions": "Bendiocarb 0.032 mg/m^2 alone, 3 h after contact"}, "[10]": {"conditions": "Bendiocarb 0.032 mg/m^2 alone, 4 h after contact"}, "[11]": {"conditions": "Bendiocarb 0.032 mg/m^2 alone, 24 h after contact"}, "[12]": {"conditions": "Bendiocarb 0.16 mg/m^2 alone, 0.25 h after contact"}, "[13]": {"conditions": "Bendiocarb 0.16 mg/m^2 alone, 0.5 h after contact"}, "[14]": {"conditions": "Bendiocarb 0.16 mg/m^2 alone, 1 h after contact"}, "[15]": {"conditions": "Bendiocarb 0.16 mg/m^2 alone, 2 h after contact"}, "[16]": {"conditions": "Bendiocarb 0.16 mg/m^2 alone, 3 h after contact"}, "[17]": {"conditions": "Bendiocarb 0.16 mg/m^2 alone, 4 h after contact"}, "[18]": {"conditions": "Bendiocarb 0.16 mg/m^2 alone, 24 h after contact"}},
  "data": [
    {"compound": "CNC(=O)Oc1cccc2c1OC(C)(C)O2", "note": "[Bendiocarb, bendiocarb]", "values": [
      {"measurement": "Effect % (knock-down)", "setting": "[1]; [5]", "value": 0, "unit": "%"},
      {"measurement": "Effect % (knock-down)", "setting": "[1]; [6]", "value": 0, "unit": "%"},
      {"measurement": "Effect % (knock-down)", "setting": "[1]; [7]", "value": 0, "unit": "%"},
      {"measurement": "Effect % (knock-down)", "setting": "[1]; [8]", "value": 0, "unit": "%"},
      {"measurement": "Effect % (knock-down)", "setting": "[1]; [9]", "value": 0, "unit": "%"},
      {"measurement": "Effect % (knock-down)", "setting": "[1]; [10]", "value": 5, "unit": "%"},
      {"measurement": "Effect % (knock-down)", "setting": "[1]; [11]", "value": 0, "unit": "%"},
      {"measurement": "Effect % (knock-down)", "setting": "[1]; [12]", "value": 0, "unit": "%"},
      {"measurement": "Effect % (knock-down)", "setting": "[1]; [13]", "value": 5, "unit": "%"},
      {"measurement": "Effect % (knock-down)", "setting": "[1]; [14]", "value": 5, "unit": "%"},
      {"measurement": "Effect % (knock-down)", "setting": "[1]; [15]", "value": 5, "unit": "%"},
      {"measurement": "Effect % (knock-down)", "setting": "[1]; [16]", "value": 10, "unit": "%"},
      {"measurement": "Effect % (knock-down)", "setting": "[1]; [17]", "value": 10, "unit": "%"},
      {"measurement": "Effect % (knock-down)", "setting": "[1]; [18]", "value": 5, "unit": "%"},
      {"measurement": "Effect % (knock-down)", "setting": "[2]; [5]", "value": 0, "unit": "%"},
      {"measurement": "Effect % (knock-down)", "setting": "[2]; [6]", "value": 5, "unit": "%"},
      {"measurement": "Effect % (knock-down)", "setting": "[2]; [7]", "value": 5, "unit": "%"},
      {"measurement": "Effect % (knock-down)", "setting": "[2]; [8]", "value": 5, "unit": "%"},
      {"measurement": "Effect % (knock-down)", "setting": "[2]; [9]", "value": 10, "unit": "%"},
      {"measurement": "Effect % (knock-down)", "setting": "[2]; [10]", "value": 10, "unit": "%"},
      {"measurement": "Effect % (knock-down)", "setting": "[2]; [11]", "value": 40, "unit": "%"},
      {"measurement": "Effect % (knock-down)", "setting": "[2]; [12]", "value": 0, "unit": "%"},
      {"measurement": "Effect % (knock-down)", "setting": "[2]; [13]", "value": 80, "unit": "%"},
      {"measurement": "Effect % (knock-down)", "setting": "[2]; [14]", "value": 80, "unit": "%"},
      {"measurement": "Effect % (knock-down)", "setting": "[2]; [15]", "value": 45, "unit": "%"},
      {"measurement": "Effect % (knock-down)", "setting": "[2]; [16]", "value": 50, "unit": "%"},
      {"measurement": "Effect % (knock-down)", "setting": "[2]; [17]", "value": 20, "unit": "%"},
      {"measurement": "Effect % (knock-down)", "setting": "[2]; [18]", "value": 90, "unit": "%"},
      {"measurement": "Effect % (knock-down)", "setting": "[2]; Bendiocarb 0.8 mg/m^2 alone, 0.25 h after contact", "value": 100, "unit": "%"},
      {"measurement": "Effect % (knock-down)", "setting": "[2]; Bendiocarb 0.8 mg/m^2 alone, 0.5 h after contact", "value": 100, "unit": "%"},
      {"measurement": "Effect % (knock-down)", "setting": "[2]; Bendiocarb 0.8 mg/m^2 alone, 1 h after contact", "value": 100, "unit": "%"},
      {"measurement": "Effect % (knock-down)", "setting": "[2]; Bendiocarb 0.8 mg/m^2 alone, 2 h after contact", "value": 100, "unit": "%"},
      {"measurement": "Effect % (knock-down)", "setting": "[2]; Bendiocarb 0.8 mg/m^2 alone, 3 h after contact", "value": 100, "unit": "%"},
      {"measurement": "Effect % (knock-down)", "setting": "[2]; Bendiocarb 0.8 mg/m^2 alone, 4 h after contact", "value": 95, "unit": "%"},
      {"measurement": "Effect % (knock-down)", "setting": "[2]; Bendiocarb 0.8 mg/m^2 alone, 24 h after contact", "value": 100, "unit": "%"},
      {"measurement": "Effect % (knock-down)", "setting": "[3]; Bendiocarb 0.032 mg/m^2 alone (Table 2), 0.25 h after contact", "value": 5, "unit": "%"},
      {"measurement": "Effect % (knock-down)", "setting": "[3]; Bendiocarb 0.032 mg/m^2 alone (Table 2), 0.5 h after contact", "value": 5, "unit": "%"},
      {"measurement": "Effect % (knock-down)", "setting": "[3]; Bendiocarb 0.032 mg/m^2 alone (Table 2), 1 h after contact", "value": 15, "unit": "%"},
      {"measurement": "Effect % (knock-down)", "setting": "[3]; Bendiocarb 0.032 mg/m^2 alone (Table 2), 2 h after contact", "value": 10, "unit": "%"},
      {"measurement": "Effect % (knock-down)", "setting": "[3]; Bendiocarb 0.032 mg/m^2 alone (Table 2), 3 h after contact", "value": 10, "unit": "%"},
      {"measurement": "Effect % (knock-down)", "setting": "[3]; Bendiocarb 0.032 mg/m^2 alone (Table 2), 4 h after contact", "value": 15, "unit": "%"},
      {"measurement": "Effect % (knock-down)", "setting": "[3]; Bendiocarb 0.032 mg/m^2 alone (Table 2), 24 h after contact", "value": 35, "unit": "%"},
      {"measurement": "Effect % (knock-down)", "setting": "[3]; Bendiocarb 0.032 mg/m^2 alone (Table 3), 0.25 h after contact", "value": 10, "unit": "%"},
      {"measurement": "Effect % (knock-down)", "setting": "[3]; Bendiocarb 0.032 mg/m^2 alone (Table 3), 0.5 h after contact", "value": 25, "unit": "%"},
      {"measurement": "Effect % (knock-down)", "setting": "[3]; Bendiocarb 0.032 mg/m^2 alone (Table 3), 1 h after contact", "value": 25, "unit": "%"},
      {"measurement": "Effect % (knock-down)", "setting": "[3]; Bendiocarb 0.032 mg/m^2 alone (Table 3), 2 h after contact", "value": 25, "unit": "%"},
      {"measurement": "Effect % (knock-down)", "setting": "[3]; Bendiocarb 0.032 mg/m^2 alone (Table 3), 3 h after contact", "value": 35, "unit": "%"},
      {"measurement": "Effect % (knock-down)", "setting": "[3]; Bendiocarb 0.032 mg/m^2 alone (Table 3), 4 h after contact", "value": 35, "unit": "%"},
      {"measurement": "Effect % (knock-down)", "setting": "[3]; Bendiocarb 0.032 mg/m^2 alone (Table 3), 24 h after contact", "value": 80, "unit": "%"},
      {"measurement": "Effect % (knock-down)", "setting": "[3]; Bendiocarb 0.16 mg/m^2 alone (Table 2), 0.25 h after contact", "value": 5, "unit": "%"},
      {"measurement": "Effect % (knock-down)", "setting": "[3]; Bendiocarb 0.16 mg/m^2 alone (Table 2), 0.5 h after contact", "value": 90, "unit": "%"},
      {"measurement": "Effect % (knock-down)", "setting": "[3]; Bendiocarb 0.16 mg/m^2 alone (Table 2), 1 h after contact", "value": 95, "unit": "%"},
      {"measurement": "Effect % (knock-down)", "setting": "[3]; Bendiocarb 0.16 mg/m^2 alone (Table 2), 2 h after contact", "value": 100, "unit": "%"},
      {"measurement": "Effect % (knock-down)", "setting": "[3]; Bendiocarb 0.16 mg/m^2 alone (Table 2), 3 h after contact", "value": 100, "unit": "%"},
      {"measurement": "Effect % (knock-down)", "setting": "[3]; Bendiocarb 0.16 mg/m^2 alone (Table 2), 4 h after contact", "value": 90, "unit": "%"},
      {"measurement": "Effect % (knock-down)", "setting": "[3]; Bendiocarb 0.16 mg/m^2 alone (Table 2), 24 h after contact", "value": 90, "unit": "%"},
      {"measurement": "Effect % (knock-down)", "setting": "[3]; Bendiocarb 0.16 mg/m^2 alone (Table 3), 0.25 h after contact", "value": 15, "unit": "%"},
      {"measurement": "Effect % (knock-down)", "setting": "[3]; Bendiocarb 0.16 mg/m^2 alone (Table 3), 0.5 h after contact", "value": 100, "unit": "%"},
      {"measurement": "Effect % (knock-down)", "setting": "[3]; Bendiocarb 0.16 mg/m^2 alone (Table 3), 1 h after contact", "value": 100, "unit": "%"},
      {"measurement": "Effect % (knock-down)", "setting": "[3]; Bendiocarb 0.16 mg/m^2 alone (Table 3), 2 h after contact", "value": 100, "unit": "%"},
      {"measurement": "Effect % (knock-down)", "setting": "[3]; Bendiocarb 0.16 mg/m^2 alone (Table 3), 3 h after contact", "value": 100, "unit": "%"},
      {"measurement": "Effect % (knock-down)", "setting": "[3]; Bendiocarb 0.16 mg/m^2 alone (Table 3), 4 h after contact", "value": 100, "unit": "%"},
      {"measurement": "Effect % (knock-down)", "setting": "[3]; Bendiocarb 0.16 mg/m^2 alone (Table 3), 24 h after contact", "value": 100, "unit": "%"},
      {"measurement": "Effect % (knock-down)", "setting": "[3]; Bendiocarb 0.8 mg/m^2 alone (Table 2), 0.25 h after contact", "value": 95, "unit": "%"},
      {"measurement": "Effect % (knock-down)", "setting": "[3]; Bendiocarb 0.8 mg/m^2 alone (Table 2), 0.5 h after contact", "value": 100, "unit": "%"},
      {"measurement": "Effect % (knock-down)", "setting": "[3]; Bendiocarb 0.8 mg/m^2 alone (Table 2), 1 h after contact", "value": 100, "unit": "%"},
      {"measurement": "Effect % (knock-down)", "setting": "[3]; Bendiocarb 0.8 mg/m^2 alone (Table 2), 2 h after contact", "value": 100, "unit": "%"},
      {"measurement": "Effect % (knock-down)", "setting": "[3]; Bendiocarb 0.8 mg/m^2 alone (Table 2), 3 h after contact", "value": 100, "unit": "%"},
      {"measurement": "Effect % (knock-down)", "setting": "[3]; Bendiocarb 0.8 mg/m^2 alone (Table 2), 4 h after contact", "value": 100, "unit": "%"},
      {"measurement": "Effect % (knock-down)", "setting": "[3]; Bendiocarb 0.8 mg/m^2 alone (Table 2), 24 h after contact", "value": 100, "unit": "%"},
      {"measurement": "efficiency on concrete", "setting": "[4]", "value": "not efficient"}
    ]}
  ]
}
